Columns and labels:
Assay in all cases: relative viability (nuclei count vs DMSO), 5 days (fraction); higher = more cells survive
[1] = compound: C#Cc1cccc(Nc2ncnc3cc(OCCOC)c(OCCOC)cc23)c1 [Erlotinib] + Cc1cc(Nc2cc(N3CCN(C)CC3)nc(Sc3ccc(NC(=O)C4CC4)cc3)n2)n[nH]1 [Tozasertib] (partner 0.1 µM)
Method in brief: (§1)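 Relative viability equals treated-well nuclei counts divided by vehicle-well nuclei counts. Counts came from 4× images of lung cancer cell lines grown in 1536-well plates for 5 days after pin-tool dosing on the day after seeding. Dosing used one drug alone or a fixed anchor-drug dose plus five library-drug doses (not always all listed) in √10 steps, and values are medians of duplicate plates.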

[2] = compound: C#Cc1cccc(Nc2ncnc3cc(OCCOC)c(OCCOC)cc23)c1 [Erlotinib] + C[C@]1(O)C[C@@H](c2nc(-c3ccc4ccc(-c5ccccc5)nc4c3)c3c(N)nccn32)C1 [Linsitinib] (partner 1 µM)
Method in brief: as §1

[3] = compound: C#Cc1cccc(Nc2ncnc3cc(OCCOC)c(OCCOC)cc23)c1 [Erlotinib] + CC(=O)Nc1cccc(-n2c(=O)n(C3CC3)c(=O)c3c(Nc4ccc(I)cc4F)n(C)c(=O)c(C)c32)c1 [Trametinib] (partner 0.02 µM)
Method in brief: as §1

[4] = compound: C#Cc1cccc(Nc2ncnc3cc(OCCOC)c(OCCOC)cc23)c1 [Erlotinib] + CS(=O)(=O)N1CCN(Cc2cc3nc(-c4cccc5[nH]ncc45)nc(N4CCOCC4)c3s2)CC1 [Pictilisib] (partner 1 µM)
Method in brief: as §1

[5] = compound: C#Cc1cccc(Nc2ncnc3cc(OCCOC)c(OCCOC)cc23)c1 [Erlotinib] + O=C(c1cc(Cc2n[nH]c(=O)c3ccccc23)ccc1F)N1CCN(C(=O)C2CC2)CC1 [Olaparib] (partner 8 µM)
Method in brief: as §1

Cell Line	relative viability ([1]; first compound 0.02 µM)	relative viability ([1]; first compound 0.2 µM)	relative viability ([1]; first compound 0.6325 µM)	relative viability ([1]; first compound 2 µM)	relative viability ([2]; first compound 0.02 µM)	relative viability ([2]; first compound 0.2 µM)	relative viability ([2]; first compound 0.6325 µM)	relative viability ([2]; first compound 2 µM)	relative viability ([3]; first compound 0.02 µM)	relative viability ([3]; first compound 0.2 µM)	relative viability ([3]; first compound 0.6325 µM)	relative viability ([3]; first compound 2 µM)	relative viability ([4]; first compound 0.02 µM)	relative viability ([4]; first compound 0.2 µM)	relative viability ([4]; first compound 0.6325 µM)	relative viability ([4]; first compound 2 µM)	relative viability ([5]; first compound 0.02 µM)	relative viability ([5]; first compound 0.2 µM)	relative viability ([5]; first compound 0.6325 µM)	relative viability ([5]; first compound 2 µM)
201T	0.965	0.915	0.877	0.707	0.968	0.933	1.01	0.854	0.709	0.675	0.694	0.636	0.694	0.651	0.692	0.664	0.846	0.85	0.788	0.774
A549					0.546	0.523	0.63	0.489					0.471	0.529	0.582	0.406	0.345	0.303	0.332	0.269
A-427	0.251	0.225	0.197	0.162	1.15	1.1	1.12	1.12	0.885	0.752	0.882	0.749	0.826	0.682	0.829	0.76	0.792	0.757	0.713	0.716
ABC-1	0.154	0.172	0.173	0.148	0.928	0.674	0.776	0.686					0.656	0.71	0.847	0.589		1.01	1.03	0.769
BEN	0.593	0.462	0.468	0.436	0.96	0.893	1.16	0.891	1.01	0.883	1.24	1.16	0.466	0.483	0.683	0.514	1.3	1.06	1.14	1.03
CAL-12T	0.357	0.226	0.188	0.153	0.804	0.654	0.5	0.368	0.334	0.279	0.31	0.173	0.277	0.388	0.419	0.274	0.742	0.674	0.488	0.474
COR-L23	0.253	0.202	0.163	0.114	1.21	0.95	1.07		0.67	0.636	0.617	0.545	0.898	0.692	1.04	0.656	0.38	0.309	0.442	0.308
COR-L 105	0.335	0.305	0.217	0.227	0.907	0.532	0.385	0.289	0.455	0.336	0.415	0.362	0.406	0.342	0.351	0.332	0.638	0.603	0.47	0.294
Calu-6					1.01	0.913	0.902	0.816					0.94	0.856	0.913	0.817	0.602	0.546	0.552	0.519
ChaGo-K-1	0.214	0.186	0.179	0.185					0.886	0.874	0.909	0.832	0.472	0.659	1.05	0.508	0.426	0.466	0.391	0.402
EBC-1					0.918	0.969	1.06	0.699					0.382	0.322	0.309	0.259	0.724	0.75	0.675	
EKVX	0.329	0.226	0.212	0.111	0.941	0.395	0.235	0.117	0.367	0.2	0.191	0.162	0.405	0.217	0.191	0.109	0.839	0.476	0.385	0.183
EMC-BAC-2	0.279	0.345	0.32	0.25	0.795	0.705	0.703	0.584		0.765	0.901	0.739	0.543	0.535	0.542	0.47	0.569	0.547	0.492	0.46
EPLC-272H	0.22	0.291	0.235	0.183	1.11	1.18	1.06	0.802	0.322	0.282	0.282	0.207	0.314	0.279	0.352	0.242	0.704	0.711	1.01	0.575
H3255		0.564	0.211	0.142	0.971	0.297	0.188	0.115	0.632	0.412	0.326	0.214	0.497	0.159	0.118	0.0937	0.661	0.469	0.387	0.242
HARA	0.0745	0.0897	0.0791	0.0606	1.13	0.834	0.59	0.197	0.709	0.39	0.406	0.291	0.555	0.46	0.311	0.155	1.1	0.591	1.02	0.354
HCC-15	0.411	0.444	0.398	0.16	0.927	0.922	1		0.394	0.344	0.339	0.347	0.758		0.735	0.659	0.701	0.753	0.715	0.626
HCC-44	1.18	0.421	1.04	0.711	0.663	0.664	0.723	0.61	1.07	1.01	1.1	0.981	0.662	0.696	0.752	0.523	0.94	0.984	1.05	0.947

— the supplement of paper PMC10307832
